These results are taken from ChEMBL document CHEMBL4308825, “Positive and Negative Allosteric Modulators of N-Methyl-d-aspartate (NMDA) Receptors: Structure-Activity Relationships and Mechanisms of Action” (J Med Chem, 2018).

Assay [1] deals with T1, Glutamate receptor ionotropic, NMDA 2D (Homo sapiens, UniProt O15399+Q05586). Nature of the assay: Positive allosteric modulation of GluN2D receptor (unknown origin) expressed in xenopus laevis oocytes assessed as increase in glycine-induced channel current by two electrode voltage clamp method. Type of assay: cell-based.
For assay [2], the target named is T2, Glutamate receptor ionotropic, NMDA 2C (Homo sapiens, UniProt Q05586+Q14957). Nature of the assay: Positive allosteric modulation of GluN2C receptor (unknown origin) expressed in xenopus laevis oocytes assessed as increase in glycine-induced channel current by two electrode voltage clamp method. In kind it is cell-based. (Two-electrode voltage clamp is typically applied to oocytes expressing channels or transporters.)

In assay [3] the target is T3, Glutamate receptor ionotropic, NMDA 2B (Homo sapiens, UniProt Q05586+Q13224). Nature of the assay: Positive allosteric modulation of GluN2B receptor (unknown origin) expressed in xenopus laevis oocytes assessed as increase in glycine-induced channel current by two electrode voltage clamp method. Type of assay: cell-based.
For assay [4], the target named is T4, Glutamate receptor ionotropic, NMDA 2A (Homo sapiens, UniProt Q05586+Q12879). Nature of the assay: Positive allosteric modulation of GluN2A receptor (unknown origin) expressed in xenopus laevis oocytes assessed as increase in glycine-induced channel current by two electrode voltage clamp method. Type of assay: cell-based.
The target in assay [5] is T2, Glutamate receptor ionotropic, NMDA 2C. Nature of the assay: Negative allosteric modulation of GluN2C receptor (unknown origin) expressed in xenopus laevis oocytes assessed as reduction in glycine-induced channel current by two electrode voltage clamp method. Type of assay: cell-based.
Assay [6] has as its target T4, Glutamate receptor ionotropic, NMDA 2A. Nature of the assay: Positive allosteric modulation of EGFP-fused human GluN2A receptor expressed in HEK293T cells assessed as increase in glycine-induced channel current by two electrode voltage clamp method. Type of assay: cell-based.
For assay [7], the target named is T1, Glutamate receptor ionotropic, NMDA 2D. Nature of the assay: Positive allosteric modulation of EGFP-fused human GluN2D receptor expressed in HEK293T cells assessed as increase in glycine-induced channel current by two electrode voltage clamp method. In kind it is cell-based.
Assay [8] concerns the target T2, Glutamate receptor ionotropic, NMDA 2C. Nature of the assay: Positive allosteric modulation of EGFP-fused human GluN2C receptor expressed in HEK293T cells assessed as increase in glycine-induced channel current by two electrode voltage clamp method. Type of assay: cell-based.
Assay [9] concerns the target T1, Glutamate receptor ionotropic, NMDA 2D. Nature of the assay: Negative allosteric modulation of GluN2D receptor (unknown origin) expressed in xenopus laevis oocytes assessed as reduction in glycine-induced channel current by two electrode voltage clamp method. Type of assay: cell-based.
Assay [10] addresses T3, Glutamate receptor ionotropic, NMDA 2B. Nature of the assay: Positive allosteric modulation of EGFP-fused human GluN2B receptor expressed in HEK293T cells assessed as increase in glycine-induced channel current by two electrode voltage clamp method. Type of assay: cell-based.
Assay [11] has as its target T4, Glutamate receptor ionotropic, NMDA 2A. Nature of the assay: Negative allosteric modulation of GluN2A receptor (unknown origin) expressed in xenopus laevis oocytes assessed as reduction in glycine-induced channel current by two electrode voltage clamp method. Type of assay: cell-based.
The target of assay [12] is T3, Glutamate receptor ionotropic, NMDA 2B. Nature of the assay: Negative allosteric modulation of GluN2B receptor (unknown origin) expressed in xenopus laevis oocytes assessed as reduction in glycine-induced channel current by two electrode voltage clamp method. In kind it is cell-based.
Assay [13] addresses T1, Glutamate receptor ionotropic, NMDA 2D. Nature of the assay: Negative allosteric modulation of human GluN2D receptor expressed in HEK cells assessed as reduction in glycine/glutamate-induced intracellular calcium flux preincubated for 5 mins followed by glycine/glutamate addition by Fluo-4-AM dye based FLIPR assay. In kind it is cell-based. (A change in cytosolic calcium serves as a functional read-out for many receptors and channels.)

The target is the same in assay [14]. Nature of the assay: Negative allosteric modulation of human GluN2D receptor expressed in xenopus laevis oocytes assessed as reduction in 3 uM glycine-induced channel current at -40 mV holding potential by two electrode voltage clamp method. In kind it is cell-based.
The target of assay [15] is T2, Glutamate receptor ionotropic, NMDA 2C. Nature of the assay: Negative allosteric modulation of human GluN2C receptor expressed in xenopus laevis oocytes assessed as reduction in 3 uM glycine-induced channel current at -40 mV holding potential by two electrode voltage clamp method. In kind it is cell-based.
Assay [16] deals with T4, Glutamate receptor ionotropic, NMDA 2A. Nature of the assay: Negative allosteric modulation of human GluN2A receptor expressed in xenopus laevis oocytes assessed as reduction in 3 uM glycine-induced channel current at -40 mV holding potential by two electrode voltage clamp method. Type of assay: cell-based.
Assay [17] shares this target. Nature of the assay: Positive allosteric modulation of GluN2A receptor (unknown origin) expressed in HEK cell assessed as increase in glycine-induced calcium influx.
The species entered for assay [18] is Homo sapiens. Nature of the assay: Selectivity ratio of IC50 for GluN2A receptor (unknown origin) expressed in xenopus laevis oocytes to IC50 for GluN2D receptor (unknown origin) expressed in xenopus laevis oocytes. Type of assay: cell-based.
For assay [19], the species on record is Homo sapiens. Nature of the assay: Selectivity ratio of IC50 for GluN2A receptor (unknown origin) expressed in xenopus laevis oocytes to IC50 for GluN2C receptor (unknown origin) expressed in xenopus laevis oocytes. In kind it is cell-based.
Assay [20] is filed under the species Homo sapiens. Nature of the assay: Selectivity ratio of IC50 for GluN2B receptor (unknown origin) expressed in xenopus laevis oocytes to IC50 for GluN2D receptor (unknown origin) expressed in xenopus laevis oocytes. In kind it is cell-based.
For assay [21], the species on record is Homo sapiens. Nature of the assay: Selectivity ratio of IC50 for GluN2B receptor (unknown origin) expressed in xenopus laevis oocytes to IC50 for GluN2C receptor (unknown origin) expressed in xenopus laevis oocytes. In kind it is cell-based.
In assay [22] the target is Ionotropic glutamate receptor NMDA 1/2D (Homo sapiens, UniProt O15399+Q05586). Nature of the assay: Negative allosteric modulation of GluN1a/GluN2D receptor (unknown origin) expressed in xenopus laevis oocytes assessed as reduction in glutamate/glycine-induced channel current at -60 mV holding potential by two electrode voltage clamp method. In kind it is cell-based.

Assay [23] has as its target Glutamate NMDA receptor; GRIN1/GRIN2A (Homo sapiens, UniProt Q05586+Q12879). Nature of the assay: Negative allosteric modulation of GluN1a/GluN2A receptor (unknown origin) expressed in xenopus laevis oocytes assessed as reduction in glutamate/glycine-induced channel current at -60 mV holding potential by two electrode voltage clamp method. Type of assay: cell-based.

The target of assay [24] is Ionotropic glutamate receptor NMDA 1/2C (Homo sapiens, UniProt Q05586+Q14957). Nature of the assay: Negative allosteric modulation of GluN1a/GluN2C receptor (unknown origin) expressed in xenopus laevis oocytes assessed as reduction in glutamate/glycine-induced channel current at -60 mV holding potential by two electrode voltage clamp method. In kind it is cell-based.

The target in assay [25] is Glutamate NMDA receptor; GRIN1/GRIN2B (Homo sapiens, UniProt Q05586+Q13224). Nature of the assay: Negative allosteric modulation of GluN1a/GluN2B receptor (unknown origin) expressed in xenopus laevis oocytes assessed as reduction in glutamate/glycine-induced channel current at -60 mV holding potential by two electrode voltage clamp method. Type of assay: cell-based.
The target of assay [26] is Glutamate receptor ionotropic, NMDA 2B (Homo sapiens, UniProt Q13224). Nature of the assay: Positive allosteric modulation of GluN2B receptor (unknown origin) in hippocampal neurons assessed as increase in glycine-induced channel current by two electrode voltage clamp method.
In assay [27] the target is Glutamate receptor ionotropic, NMDA 2B (Rattus norvegicus, UniProt Q00960). Nature of the assay: Positive allosteric modulation of GluN2B receptor in rat spinal cord neurons assessed as increase in glycine-induced channel current by two electrode voltage clamp method.

SMILES strings stand for the structures.

T1 sequence (O15399 whole entry, one chain of several): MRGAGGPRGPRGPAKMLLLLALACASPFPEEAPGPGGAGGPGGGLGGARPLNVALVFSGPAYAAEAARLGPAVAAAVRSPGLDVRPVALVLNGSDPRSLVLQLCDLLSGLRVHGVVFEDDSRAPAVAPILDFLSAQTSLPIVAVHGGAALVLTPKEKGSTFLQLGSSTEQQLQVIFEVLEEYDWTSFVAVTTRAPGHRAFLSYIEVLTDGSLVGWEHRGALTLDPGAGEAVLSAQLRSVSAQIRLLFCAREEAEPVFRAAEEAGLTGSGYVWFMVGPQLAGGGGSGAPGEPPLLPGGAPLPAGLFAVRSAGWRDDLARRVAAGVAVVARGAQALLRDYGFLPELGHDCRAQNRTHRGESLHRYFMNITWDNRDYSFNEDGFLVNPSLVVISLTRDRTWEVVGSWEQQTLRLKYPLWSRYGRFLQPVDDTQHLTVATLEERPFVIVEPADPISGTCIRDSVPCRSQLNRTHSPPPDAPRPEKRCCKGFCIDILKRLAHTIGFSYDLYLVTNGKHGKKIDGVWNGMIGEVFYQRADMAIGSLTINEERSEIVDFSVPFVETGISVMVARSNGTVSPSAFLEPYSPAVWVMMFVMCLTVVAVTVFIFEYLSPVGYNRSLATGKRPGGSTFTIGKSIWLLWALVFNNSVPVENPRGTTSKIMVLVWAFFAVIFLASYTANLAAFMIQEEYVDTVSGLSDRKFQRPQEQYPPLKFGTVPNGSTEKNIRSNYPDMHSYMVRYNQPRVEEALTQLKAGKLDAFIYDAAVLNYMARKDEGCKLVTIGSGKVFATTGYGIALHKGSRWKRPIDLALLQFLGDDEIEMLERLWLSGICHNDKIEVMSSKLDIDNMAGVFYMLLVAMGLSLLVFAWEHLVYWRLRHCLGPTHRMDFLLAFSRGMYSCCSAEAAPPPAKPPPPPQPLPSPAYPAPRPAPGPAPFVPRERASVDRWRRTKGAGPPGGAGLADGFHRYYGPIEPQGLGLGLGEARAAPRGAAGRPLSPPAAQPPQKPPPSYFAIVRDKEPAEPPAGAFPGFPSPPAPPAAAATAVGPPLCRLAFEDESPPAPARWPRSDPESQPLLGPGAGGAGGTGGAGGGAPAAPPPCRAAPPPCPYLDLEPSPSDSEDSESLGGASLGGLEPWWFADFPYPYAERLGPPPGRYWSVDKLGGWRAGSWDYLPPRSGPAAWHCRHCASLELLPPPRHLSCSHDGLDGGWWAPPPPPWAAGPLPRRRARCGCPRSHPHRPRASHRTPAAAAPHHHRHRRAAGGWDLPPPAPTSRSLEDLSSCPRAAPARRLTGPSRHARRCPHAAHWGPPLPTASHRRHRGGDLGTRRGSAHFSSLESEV
T4 sequence (Q12879 whole entry, one chain of several): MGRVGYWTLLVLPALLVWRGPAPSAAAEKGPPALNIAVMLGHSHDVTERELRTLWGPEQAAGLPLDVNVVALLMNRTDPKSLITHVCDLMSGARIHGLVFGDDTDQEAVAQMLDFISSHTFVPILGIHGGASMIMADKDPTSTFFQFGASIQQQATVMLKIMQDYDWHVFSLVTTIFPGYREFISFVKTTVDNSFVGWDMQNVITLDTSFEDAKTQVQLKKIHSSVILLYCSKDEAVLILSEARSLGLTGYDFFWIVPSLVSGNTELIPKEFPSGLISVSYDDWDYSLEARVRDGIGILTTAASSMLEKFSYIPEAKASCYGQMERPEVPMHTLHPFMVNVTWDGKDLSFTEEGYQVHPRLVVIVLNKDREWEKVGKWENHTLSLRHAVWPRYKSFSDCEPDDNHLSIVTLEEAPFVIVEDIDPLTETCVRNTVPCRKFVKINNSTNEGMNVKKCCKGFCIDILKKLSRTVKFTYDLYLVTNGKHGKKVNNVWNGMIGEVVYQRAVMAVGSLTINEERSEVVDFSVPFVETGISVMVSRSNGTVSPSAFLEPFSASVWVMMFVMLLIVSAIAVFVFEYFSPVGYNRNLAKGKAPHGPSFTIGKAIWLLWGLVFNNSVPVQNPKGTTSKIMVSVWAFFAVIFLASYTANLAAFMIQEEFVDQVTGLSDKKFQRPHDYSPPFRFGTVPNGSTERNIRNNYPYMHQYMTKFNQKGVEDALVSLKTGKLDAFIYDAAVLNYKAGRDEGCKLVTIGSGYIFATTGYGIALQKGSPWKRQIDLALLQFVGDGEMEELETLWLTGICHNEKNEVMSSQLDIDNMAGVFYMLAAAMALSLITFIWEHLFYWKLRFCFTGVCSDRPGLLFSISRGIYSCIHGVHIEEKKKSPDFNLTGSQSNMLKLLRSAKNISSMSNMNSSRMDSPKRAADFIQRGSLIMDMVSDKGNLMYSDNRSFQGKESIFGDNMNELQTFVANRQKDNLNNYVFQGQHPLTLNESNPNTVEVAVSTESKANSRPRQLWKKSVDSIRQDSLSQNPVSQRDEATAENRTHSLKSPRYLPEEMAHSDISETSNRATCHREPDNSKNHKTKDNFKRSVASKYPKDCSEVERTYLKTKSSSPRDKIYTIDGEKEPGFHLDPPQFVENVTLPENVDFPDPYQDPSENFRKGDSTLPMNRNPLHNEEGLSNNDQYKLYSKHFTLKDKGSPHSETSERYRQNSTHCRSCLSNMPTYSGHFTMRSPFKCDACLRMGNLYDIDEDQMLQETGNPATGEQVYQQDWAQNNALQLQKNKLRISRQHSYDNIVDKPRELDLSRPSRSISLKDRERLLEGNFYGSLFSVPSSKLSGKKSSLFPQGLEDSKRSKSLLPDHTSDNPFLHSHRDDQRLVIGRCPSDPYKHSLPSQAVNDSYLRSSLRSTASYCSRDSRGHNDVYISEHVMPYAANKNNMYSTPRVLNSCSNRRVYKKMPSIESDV
T3 sequence (Q13224 whole entry, one chain of several): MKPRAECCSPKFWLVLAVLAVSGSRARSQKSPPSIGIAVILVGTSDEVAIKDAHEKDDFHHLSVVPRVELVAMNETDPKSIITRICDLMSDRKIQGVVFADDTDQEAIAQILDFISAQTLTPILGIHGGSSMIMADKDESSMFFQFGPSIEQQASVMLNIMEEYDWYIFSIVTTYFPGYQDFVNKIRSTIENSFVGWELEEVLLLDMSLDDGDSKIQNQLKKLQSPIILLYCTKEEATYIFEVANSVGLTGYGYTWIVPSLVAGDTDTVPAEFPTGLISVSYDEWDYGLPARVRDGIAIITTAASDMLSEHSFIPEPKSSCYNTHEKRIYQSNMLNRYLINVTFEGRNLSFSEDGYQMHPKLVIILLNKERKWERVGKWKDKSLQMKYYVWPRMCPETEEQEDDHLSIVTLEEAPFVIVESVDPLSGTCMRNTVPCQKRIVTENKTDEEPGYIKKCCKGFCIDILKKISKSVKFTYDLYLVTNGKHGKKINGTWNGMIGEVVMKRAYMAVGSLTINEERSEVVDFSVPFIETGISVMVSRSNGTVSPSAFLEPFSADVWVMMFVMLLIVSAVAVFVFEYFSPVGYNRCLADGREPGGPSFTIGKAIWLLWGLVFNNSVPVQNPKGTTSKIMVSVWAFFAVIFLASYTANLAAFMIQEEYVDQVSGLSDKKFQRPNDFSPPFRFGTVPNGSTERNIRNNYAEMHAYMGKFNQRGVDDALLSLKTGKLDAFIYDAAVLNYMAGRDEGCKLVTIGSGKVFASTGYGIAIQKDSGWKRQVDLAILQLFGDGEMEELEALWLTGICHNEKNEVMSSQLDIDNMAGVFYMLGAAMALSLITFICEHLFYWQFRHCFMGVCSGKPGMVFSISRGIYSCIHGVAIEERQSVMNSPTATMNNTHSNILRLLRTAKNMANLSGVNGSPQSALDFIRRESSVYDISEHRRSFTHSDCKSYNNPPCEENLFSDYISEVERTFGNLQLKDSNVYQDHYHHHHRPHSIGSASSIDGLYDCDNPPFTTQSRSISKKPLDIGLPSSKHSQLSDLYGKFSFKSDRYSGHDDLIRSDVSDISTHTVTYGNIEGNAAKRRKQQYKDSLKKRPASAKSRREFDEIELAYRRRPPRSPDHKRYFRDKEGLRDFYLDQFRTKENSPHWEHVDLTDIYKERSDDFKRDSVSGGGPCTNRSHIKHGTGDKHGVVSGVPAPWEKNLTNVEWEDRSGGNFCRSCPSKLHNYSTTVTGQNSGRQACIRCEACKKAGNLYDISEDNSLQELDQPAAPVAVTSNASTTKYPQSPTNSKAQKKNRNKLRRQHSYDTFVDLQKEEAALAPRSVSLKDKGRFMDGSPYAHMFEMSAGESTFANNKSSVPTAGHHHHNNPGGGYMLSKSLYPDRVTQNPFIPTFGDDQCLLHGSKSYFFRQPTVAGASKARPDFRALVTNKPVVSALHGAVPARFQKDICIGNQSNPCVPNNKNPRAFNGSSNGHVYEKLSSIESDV
Ionotropic glutamate receptor NMDA 1/2D, sequence (O15399 whole entry, other chains not shown): as the sequence (O15399 whole entry, one chain of several) above

With `CCCc1nc2[nH]c(C)c(NS(=O)(=O)c3ccc(C4CCCCC4)cc3)c(=O)n2n1`, the EC50 came out at 6.7 µM in [1], 6.6 µM in assay [2], 15.7 µM in assay [3] and 3.2 µM in assay [4].

With `CC(=O)[C@H]1CC[C@H]2[C@@H]3CC=C4C[C@@H](OS(=O)(=O)O)CC[C@]4(C)[C@H]3CC[C@]12C`, the half-maximal inhibitory concentration (IC50) in assay [5] was 112 µM; in [9], 118 µM. Further, the concentration for a half-maximal effect (EC50) in assay [6] turned out to be 34 µM; in assay [3], 33 µM; in assay [7], 78 µM; in [8] it was 83 µM; in [4] it was 21 µM; in assay [10], 63 µM.

As for `COc1ccc2nc(/C=C/c3cccc([N+](=O)[O-])c3)n(-c3ccc(C(=O)O)cc3)c(=O)c2c1`, the half-inhibitory concentration (IC50) in assay [5] turned out to be 7.1 µM; in assay [11], 182 µM; in assay [12], 193 µM; in assay [9], 3.9 µM.

On to `Cc1ccc2[nH]c(=O)c(C3=NN(C(=O)CCC(=O)O)C(c4ccc(Br)cc4)C3)c(-c3ccccc3)c2c1` (stereo unspecified), for which the IC50 was determined as 7 µM in assay [5] and 113 µM in [12].

Take `O=C(O)c1ccc2cc(I)c3ccccc3c2c1`: the 50% inhibitory concentration (IC50) in assay [5] and in [9] was 50 µM in each case. In addition, in assay [4], the EC50 was determined as 100 µM.

`C[C@@H](CN1CCC(Cc2ccccc2)CC1)[C@@H](O)c1ccc(O)cc1`: the half-inhibitory concentration (IC50) in assay [11] turned out to be 52 µM; in [12] it was 0.009 µM.

As for `O=C(NNC(=O)c1ccc(CNS(=O)(=O)c2ccc(F)c(Cl)c2)cc1)c1ccccc1`, the concentration for half-maximal inhibition (IC50) is over 30 µM in [13], over 10 µM in assay [14] and over 10 µM in assay [15].

For `CC(C(O)c1ccc(O)cc1)N1CCC(Cc2ccccc2)CC1` (stereo unspecified) [IFENPRODIL], the values for the half-maximal inhibitory concentration (IC50) in assay [14], in assay [15] and in [16] were 75.9 µM, 29.1 µM and 39.5 µM, respectively.

Regarding `O=C(O)c1cc2cc(-c3ccccc3)ccc2c(Br)c1O`, the half-inhibitory concentration (IC50) was 2 µM in assay [5], 1.8 µM in assay [11], 2.4 µM in [12] and 2.4 µM in assay [9].

For `Cc1sc2nc(COc3ccc(F)cc3)cc(=O)n2c1[C@@H]1C[C@@H]1CO`, in [4], the concentration giving a half-maximal response (EC50) amounted to 8.5 µM.

Take `CCN(Cc1cc(=O)n2c3c(sc2n1)CCC3)c1ccc(F)cc1`: the concentration for a half-maximal effect (EC50) in assay [17] is 2.43 µM.

As to `O=C(O)CCC(=O)N1N=C(c2c(-c3ccccc3)c3cc(Br)ccc3[nH]c2=O)CC1c1ccc(Br)cc1` (stereo unspecified), the half-inhibitory concentration (IC50) in assay [5] is 5.4 µM; in [11], 78 µM; in [12], 19 µM; in assay [9], 2.7 µM.

For the compound `COC(=O)c1ccc(C2C(C(C)=O)=C(O)C(=O)N2CCc2c(C)[nH]c3ccccc23)cc1` (stereo unspecified), in [2], the half-maximal effective concentration (EC50) was found to be 13 µM.

On to `COc1ccc(OCC2c3cc(OC)c(OC)cc3CCN2C(=O)c2cccc(Cl)c2)cc1` (stereo unspecified), for which the EC50 in assay [1] is 2.8 µM; in assay [2] it was 2.7 µM; in [3], over 10 µM; in [4], over 10 µM.

Consider `Cc1nccn1Cc1cc(-c2ccc(F)c(C(F)F)c2)cnn1` [EVT-101 FREE BASE], for which the IC50 in assay [12] came out at 0.012 µM.

Take `CCN(CC)C(=S)Oc1ccc(C(=O)Nc2cccc3ccccc23)cc1`: the IC50 in assay [5] is 2.6 µM; in assay [9] it was 1.4 µM. Also, the Ratio IC50 in the assay filed under Homo sapiens [18], in the assay listed under Homo sapiens [19], in the assay filed under Homo sapiens [20] and in the assay filed under Homo sapiens [21] was over 400 in each case.

As to `O=C(O)c1cc2cccc(O)c2cc1O`, in [1], the concentration for a half-maximal effect (EC50) worked out at 10 µM. The half-inhibitory concentration (IC50) in assay [5] came out at 15 µM; in assay [11], 9.7 µM; in assay [12] it was 9.4 µM.

For `O=C(O)c1cc2cc(Br)ccc2oc1=O`, the IC50 in assay [22] is 426 µM; in [23], 19 µM; in assay [24], 68 µM; in assay [11] it was 18.6 µM; in [25] it was 90 µM.

As for `CC(C)CCCc1ccc2cc(C(=O)O)ccc2c1`, the 50% effective concentration (EC50) in [1] was determined as 29 µM; in assay [2] it was 37 µM; in assay [3], 34 µM; in assay [4] it was 28 µM.

In the case of `NCCCNCCCCNCCCN` [SPERMINE], the EC50 in [26] is 125 µM; in assay [3], 127 µM; in assay [27] it was 81 µM.

In the case of `CC(=O)[C@H]1CC[C@H]2[C@@H]3CC[C@@H]4C[C@H](OS(=O)(=O)O)CC[C@]4(C)[C@H]3CC[C@]12C`, the half-maximal inhibitory concentration (IC50) in assay [5] is 12 µM; in [11] it was 62 µM; in [12], 38 µM; in assay [9], 14 µM.

By EC50 is commonly meant the concentration giving half of the maximal effect. A word on the IC50: it is the concentration at which inhibition is half-maximal.
